Experimental findings from patent US12285434B2, “Therapeutic, preventive, or improvement agent for inflammatory disease and allergic disease” (The University of Tokyo, priority 2018, dated 2025) are described below.

Assay [1] concerns histamine-induced vascular permeability in mouse ears. In words: Modified Miles assay: histamine-induced vascular hyperpermeability (Evans blue extravasation). Type of assay: in vivo, mouse (C57BL/6). To be noted: 400 μg histamine, no pretreatment. How it is done:
Fifteen (15) minutes after the intracutaneous injection, a vehicle (80% acetone) or histamine (400 μg, manufactured by Molecular Probes) was percutaneously administered to the ventral surface of the ears. To evaluate vascular permeability, Evans blue (50 mg/kg, manufactured by Sigma) was injected intravenously 5 minutes after the administration of histamine. The mice were then euthanized by cervical dislocation 30 minutes after the injection of Evans blue. The ears were dissected, dried at 55° C., and weighed. Extravasated Evans blue present in the ears was extracted in formamide (manufactured by Molecular Probes), and quantified spectrophotometrically (manufactured by PerkinElmer Japan Co., Ltd.) at a wavelength of 610 nm.

Assay [2] deals with ear vessels of the mice. In words: In vivo microscopy of ear vessels: FITC-dextran leakage and vascular diameter after histamine. Further details: species or system mouse. To be noted: histamine 400 μg by instillation, no pretreatment. The protocol: To visualize the ear vessels of the mice, 70 kDa fluorescein isothiocyanate-dextran (10 mg/kg, manufactured by Sigma-Aldrich) was injected intravenously. Then, immediately after the administration of fluorescein isothiocyanate-dextran, 5,6-DiHETE (0.1 μg) was administered by instillation (percutaneously administered) as a pretreatment, and this group of mice was designated as a “5,6-DiHETE-administered group.” As a control group, a group of mice not administered with 5,6-DiHETE was designated as a “[…]-administered group”. Then, 15 minutes after the administration by instillation, histamine (400 μg) was administered by instillation (percutaneously administered) into the ventral surface of the ears for both the groups. Next, the mice were placed on the stage of a microscope confocal microscope (ECLIPSE Ti with C1 confocal system, manufactured by Nikon Corporation), and their body temperatures were maintained at 37° C. Dextran leakage and vascular diameter in the ears were monitored every minute in a period from 0 to 30 minutes after the administration of histamine using EZ-C1 Free Viewer (manufactured by Nikon Corporation), and the dextran leakage, artery diameter and vein diameter were quantified according to the description of Omori, K. et al., British Journal of Pharmacology, 171:4879-4889 (2014). It is known that smooth muscle contraction reduces the downstream blood flow and limits the vascular leakage, whereas smooth muscle relaxation (increase of vascular diameter) increases the blood flow, thereby leading to vascular leakage.

In assay [3] the test system is HUVECs. The experiment in a line: Endothelial barrier function: transendothelial electrical resistance (TER). To be noted: histamine 10 μM, no pretreatment. Type of assay: cell-based, human. The protocol: (§1) In Examples 4 to 6, human umbilical vein endothelial cells (hereinafter, sometimes referred to as “HUVECs”, manufactured by Lonza) were cultured in EGM-2 (manufactured by Lonza K.K.). These cells (passages 4 to 9) were used for experiments after 4-hour starvation in EBM-2 (manufactured by Lonza K.K.) containing 2% FBS.
The in vitro endothelial barrier function was evaluated by measuring the transendothelial electrical resistance (hereinafter, sometimes referred to as “TER”) of the HUVECs prepared in the above item (1) over time. Specifically, the transendothelial electrical resistance was measured using an xCELLigence Real-Time Cell Analyzer DP system (manufactured by Roche). The system monitors changes in TER across an interdigitated microelectrode at the bottom of tissue culture E-plates (manufactured by Roche). The HUVECs (8,000 cells) were plated on the E-plates and incubated until confluent. Then, the following operation (a) or (b) was performed.
(a) Each reagent was added to plates on which the HUVECs were cultured, so as to give a vehicle, 1 U/mL thrombin, 1 μM forskolin, or 0.1 μM or 0.3 μM 5,6-DiHETE (FIGS. 4A and 4B).
(b) A vehicle or […] was added to plates on which the HUVECs were cultured, so as to attain 10 μM. […] Thirty (30) minutes after the addition, 10 μM histamine was added to each plate 30 minutes after the addition (FIGS. 4C and 4D).
In the above operations (a) and (b), the TER was measured every 60 seconds. For normalization, the cell index value at each time point is shown as a ratio relative to the initial value. The maximum normalized cell index after stimulation was quantified and represented as maximal response. Note that it is known that the disruption of the endothelial barrier function lowers the TER, but that the enhancement of the endothelial barrier function increases the TER.

Assay [4] concerns NO production in HUVECs. In words: Histamine-induced NO production (nitrite and nitrate). It counts as cell-based, human. To be noted: histamine 10 μM, no pretreatment. The protocol: as §1
The HUVECs were washed three times with HEPES and incubated in HEPES supplemented with 1 mM L-arginine and 10 μM tetrahydrobiopterin. After equilibration for 30 minutes, the medium was exchanged, and the cells were incubated for additional 30 minutes. […] The conditioned media before and after the stimulation (100 μL each) were collected and centrifuged in each amount of 300 g for 3 minutes. The supernatants were collected, and used to measure nitrite and nitrate, as stable metabolites of NO, by an ENO-20 NOx analyzer (manufactured by Eicom Corporation). The degrees of increases of nitrite and nitrate levels after the stimulation were normalized with cellular protein contents.

Assay [5] relates to calcium ion concentration in HUVECs. The experiment in a line: Histamine-induced increase of calcium ion concentration (fura-2). Type of assay: cell-based, human. To be noted: histamine 10 μM, no pretreatment. How it is done: These cells (passages 4 to 9) were used for experiments after 4-hour starvation in EBM-2 (manufactured by Lonza K.K.) containing 2% FBS.
HUVECs were incubated with a calcium fluorescence indicator (3 μg fura-2/AM containing 0.11% Cremophor EL) for 30 minutes and washed with an HEPES buffer three times. […] Then, 5 minutes after the addition of each reagent, histamine was added so as to attain 10 μM. In addition, a group to which histamine was added so as to attain 10 μM without pretreatment was also prepared. A cover slip was placed in a specialized airtight chamber mounted onto the stage of a microscope maintained at 37° C. The HUVECs were excited at 340 nm and 380 nm and the emitted fluorescence signal was measured every 3 seconds at 510 nm for 60 seconds. The fluorescence ratio (R:F340/F380) was determined using a fluorescence imaging system (AQUACOSMOS, manufactured by Hamamatsu Photonics K.K.). After the experiment, 1 μM ionomycin was added and the fluorescence changes were measured in the presence of 0 or 1.5 mM calcium ions. The calcium ion concentration was indicated as A fluorescence ratio. AUC was calculated 1 minute after each stimulus to evaluate the A fluorescence ratio. It is known that the increase of calcium ion concentration in endothelial cells promotes NO production by eNOS phosphorylation and […] smooth muscle cells (Garcia-Cardena, G. et al., Nature, 392: 821-824(1998); and Luo, Z. et al., The Journal of clinical investigation, 106: 493-499(2000)).

In assay [6] the test system is anaphylaxis model mice. The experiment in a line: Histamine-induced anaphylaxis: blood pressure and body temperature. It counts as in vivo, mouse (C57BL/6). To be noted: 30 minutes after histamine 50 mg/kg intravenously, no pretreatment. How it is done: Histamine (50 mg/kg) lysed in a physiological saline solution was intravenously administered to C57BL/6 strain mice (male, 8 to 12 weeks old) to prepare anaphylaxis model mice (hereinafter, sometimes referred to as “anaphylaxis group”). […] L-NAME is an NO synthesis inhibitor. As indices of anaphylactic symptoms, a body temperature decrease and a blood pressure decrease were observed.

With `NCCc1c[nH]cn1` [histamine, reference compound], the “blue dye extravasation (Evans blue) in ear” value in assay [1] was 0.14 ± 0.02 µg/mg. Further, the “artery diameter as compared with arteries nonstimulated with histamine” value in assay [2] is listed as 178±13%. Moreover, the “TER, minimum (normalized cell index)” value in assay [3] is 0.82±0.05 fold. The NO production in assay [4] was found to be 0.31±0.06 pmol/μg protein. Also, in assay [5], the “calcium ion concentration, AUC at 1 minute after stimulation” value came out at 12.2±2.1. The body temperature decrease in assay [6] was −2.2±0.3 °C.
